The values below come from patent US20090131470A1, “PYRAZOLE-SUBSTITUTED BENZIMIDAZOLE DERIVATIVES FOR USE IN THE TREATMENT OF CANCER AND AUTOIMMUNE DISORDERS” (priority 2005, published 2009).

As a reminder, the IC50 is the midpoint of a concentration-inhibition curve.

Common to all, as to format: biochemical
The target in assay [1] is CDK-2 enzyme, complexed with cyclin A (Homo sapiens, UniProt P24941). Nature of the assay: CDK2 kinase assay (33P peptide phosphorylation). The note with it: 0.1 mM ATP, cyclin A complex. The method, then:
(§1) The assay mixture containing the inhibitor and CDK-2 enzyme, complexed with cyclin A (0.4 U/ml) was mixed together in a microtiter plate in a final volume of 50 μl and incubated for 40 min at 30° C. The assay mixture contained 0.1 mM unlabeled ATP, 0.01 μCi/μl ^33P-γ-ATP, 0.03 mM peptide, 0.1 mg/ml BSA, 7.5 mM magnesium acetate, 50 mM HEPES-NaOH, pH 7.5. The reaction was stopped by adding 50 μl of 50 mM phosphoric acid. 90 μl of the mixture were transferred to a pre-wetted 96-well Multiscreen MAPHNOB filtration plate (Millipore) and filtered on a vacuum manifold. The filter plate was washed with 3 successive additions of 200 μl 50 mM phosphoric acid and then with 100 μl methanol. The filtration plate was dried for 10 min at 65° C., scintillant added and phosphorylated peptide quantified in a scintillation counter (Trilux, PerkinElmer)

The target in another assay is T1, GST-Chk1 enzyme (Homo sapiens, UniProt O14757).
T1 sequence (O14757 1-476): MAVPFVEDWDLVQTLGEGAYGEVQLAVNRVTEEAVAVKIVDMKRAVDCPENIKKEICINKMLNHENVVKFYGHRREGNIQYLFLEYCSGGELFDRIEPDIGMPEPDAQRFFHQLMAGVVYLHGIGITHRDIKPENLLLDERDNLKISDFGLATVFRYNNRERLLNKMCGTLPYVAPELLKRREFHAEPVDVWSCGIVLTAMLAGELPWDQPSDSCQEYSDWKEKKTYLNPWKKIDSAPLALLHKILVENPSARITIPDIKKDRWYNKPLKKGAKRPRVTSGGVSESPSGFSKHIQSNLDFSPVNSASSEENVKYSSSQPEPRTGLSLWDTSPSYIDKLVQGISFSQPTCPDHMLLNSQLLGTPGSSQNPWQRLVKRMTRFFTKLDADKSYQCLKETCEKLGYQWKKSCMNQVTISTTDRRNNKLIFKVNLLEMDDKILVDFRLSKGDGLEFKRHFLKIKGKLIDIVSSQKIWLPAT
Description: Chk1 kinase assay (33P Chktide phosphorylation). The note with it: 0.01 mM ATP, 40 minutes at 30° C.; read-out: CHK-1 IC50. Here is the method:
as §1, with “and Chk1 enzyme” for “and CDK-2 enzyme, complexed with cyclin A (0.4 U/ml)”, “40 minutes” for “40 min”, “C. […]” for “C. The assay mixture contained 0.1 mM unlabeled ATP, 0.01 μCi/μl ^33P-γ-ATP, 0.03 mM peptide, 0.1 mg/ml BSA, 7.5 mM magnesium acetate, 50 mM HEPES-NaOH, pH 7.5.”, “mixture was” for “mixture were”, “96-well multi-screen” for “96-well Multiscreen”

For the next assay, the target named is T2, PDK1 (Homo sapiens, UniProt O15530).
T2 sequence (O15530 1-556): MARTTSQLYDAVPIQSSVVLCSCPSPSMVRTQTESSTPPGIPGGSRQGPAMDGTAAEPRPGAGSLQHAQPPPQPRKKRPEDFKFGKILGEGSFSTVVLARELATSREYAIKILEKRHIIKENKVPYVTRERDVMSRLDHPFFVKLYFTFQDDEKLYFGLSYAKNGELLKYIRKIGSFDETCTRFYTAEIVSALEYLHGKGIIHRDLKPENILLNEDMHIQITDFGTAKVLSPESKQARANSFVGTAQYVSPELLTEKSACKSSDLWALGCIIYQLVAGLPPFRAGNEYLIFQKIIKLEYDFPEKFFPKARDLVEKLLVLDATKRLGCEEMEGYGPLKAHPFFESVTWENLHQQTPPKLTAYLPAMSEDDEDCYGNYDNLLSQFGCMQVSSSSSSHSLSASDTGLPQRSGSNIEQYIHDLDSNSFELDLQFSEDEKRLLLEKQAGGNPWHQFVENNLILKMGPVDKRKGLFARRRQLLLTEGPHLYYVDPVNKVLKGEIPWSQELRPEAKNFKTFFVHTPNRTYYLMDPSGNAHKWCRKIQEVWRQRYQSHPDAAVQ
Description: PDK1 kinase assay (33P peptide phosphorylation). The following applies: 0.01 mM ATP, 60 min at 30° C.; read-out: PDK-1 IC50. Here is the method: as §1, with “and PDK1 enzyme” for “and CDK-2 enzyme, complexed with cyclin A (0.4 U/ml)”, “for 60” for “for 40”, “contained 0.01” for “contained 0.1”, “^33P-γ-ATP, 0.075” for “^33P-γ-ATP, 0.03”, “acetate, 0.05M Tris.HCl,” for “acetate, 50 mM HEPES-NaOH,”, “pH 7.5, 0.5% 2-mercaptoethanol.” for “pH 7.5.”

In the next assay the target is T3, Akt1 (Homo sapiens, UniProt P31749).
T3 construct: purchased Upstate
Nature of the assay: Akt1 kinase assay (Histone H1 substrate). The note with it: 200 μM ATP, read-out: AKT-1 IC50. The method, then: Assays for the cyclin dependent kinase activity were carried out by monitoring the phosphorylation of a synthetic peptide, HATTPKKKRK. The assay mixture containing the inhibitor and CDK-2 enzyme, complexed with cyclin A (0.4 U/ml) was mixed together in a microtiter plate in a final volume of 50 μl and incubated for 40 min at 30° C. The assay mixture contained 0.1 mM unlabeled ATP, 0.01 μCi/μl ^33P-γ-ATP, 0.03 mM peptide, 0.1 mg/ml BSA, 7.5 mM magnesium acetate, 50 mM HEPES-NaOH, pH 7.5. The reaction was stopped by adding 50 μl of 50 mM phosphoric acid. 90 μl of the mixture were transferred to a pre-wetted 96-well Multiscreen MAPHNOB filtration plate (Millipore) and filtered on a vacuum manifold. The filter plate was washed with 3 successive additions of 200 μl 50 mM phosphoric acid and then with 100 μl methanol. The filtration plate was dried for 10 min at 65° C., scintillant added and phosphorylated peptide quantified in a scintillation counter (Trilux, PerkinElmer)
Protocol for the Akt assay is the same for CDK2 except that, 3 nM Akt1 (Upstate) was used with Histone H1 as substrate with a final ATP concentration of 200 μM. The reaction was incubated at 30° C. for 40 minutes.

A further assay deals with T4, PKA (Homo sapiens, UniProt P17612).
T4 construct: purchased Upstate
Nature of the assay: PKA kinase assay (Kemptide substrate). The following applies: 100 μM ATP. The method, then:
as §1
The PKA assay was incubated at 30° C. for 30 minutes.

Where only a bound is given, the exact number is not on record here.

T3 sequence (P31749 whole entry, species assumed): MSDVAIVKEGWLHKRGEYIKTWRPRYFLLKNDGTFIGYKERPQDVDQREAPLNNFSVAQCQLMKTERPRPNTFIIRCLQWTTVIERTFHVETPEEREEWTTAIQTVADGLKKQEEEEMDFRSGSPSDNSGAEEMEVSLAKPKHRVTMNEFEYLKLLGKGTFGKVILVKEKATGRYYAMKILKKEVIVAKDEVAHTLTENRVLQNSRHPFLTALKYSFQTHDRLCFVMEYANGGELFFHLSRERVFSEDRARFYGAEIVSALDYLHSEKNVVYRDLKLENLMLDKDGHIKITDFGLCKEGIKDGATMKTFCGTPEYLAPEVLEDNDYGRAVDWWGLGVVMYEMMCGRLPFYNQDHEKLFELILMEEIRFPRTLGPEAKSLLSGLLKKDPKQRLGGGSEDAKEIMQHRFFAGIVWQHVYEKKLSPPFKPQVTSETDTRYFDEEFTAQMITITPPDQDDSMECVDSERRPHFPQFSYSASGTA

As to `Cc1[nH]nc(-c2nc3cc(Cl)c(Cl)cc3[nH]2)c1C(=O)NC1CCNCC1` [Example 15], the IC50 in assay [1] was 4.77 µM; at GST-Chk1 enzyme it was 0.295 µM; on PDK1, 0.123 µM; on Akt1, greater than 50 µM; on PKA, 8.85 µM.

Consider `Cc1[nH]nc(-c2nc3ccccc3[nH]2)c1C(=O)NCCCCN` [Example 16], for which the IC50 in assay [1] was 43.5 µM; on GST-Chk1 enzyme it was 0.213 µM; at PDK1, 0.249 µM; at Akt1, greater than 50 µM; against PKA, 20.7 µM.

In the case of `Cc1[nH]nc(-c2nc3cc(Cl)ccc3[nH]2)c1C(=O)NC1CCNCC1` [Example 17], the half-maximal inhibitory concentration (IC50) was 10.6 µM in assay [1]; 0.222 µM at GST-Chk1 enzyme; 0.189 µM on PDK1; greater than 50 µM at Akt1; 9.03 µM against PKA.

Consider `Cc1[nH]nc(-c2nc3cc(C#N)ccc3[nH]2)c1C(=O)NC1CCNCC1` [Example 18], for which the 50% inhibitory concentration (IC50) is 12.2 µM in assay [1]; 0.137 µM on GST-Chk1 enzyme; 0.311 µM on PDK1; greater than 50 µM at Akt1; 22.6 µM against PKA.

For the compound `Cc1[nH]nc(-c2nc3ccccc3[nH]2)c1C(=O)NC1CCCNC1` (centres unmarked) [Example 19], the IC50 in assay [1] is 4.47 µM; on GST-Chk1 enzyme, 0.058 µM; on PDK1 it was 0.05 µM; on Akt1, greater than 50 µM; on PKA, 10.9 µM.

With `O=C(NC1CCNCC1)c1c[nH]nc1-c1nc2ccccc2[nH]1` [Example 20], the IC50 in assay [1] was 6.36 µM; at GST-Chk1 enzyme it was 0.252 µM; on PDK1, 0.323 µM; on Akt1 it was greater than 50 µM; against PKA, 32.1 µM.

`Cc1[nH]nc(-c2nc3ccc(NC(=O)C(C)C)cc3[nH]2)c1C(=O)NC1CCN(C)CC1` [Example 21]: the IC50 in assay [1] was 21.3 µM; at GST-Chk1 enzyme it was 0.006 µM; at PDK1, 0.074 µM; at Akt1 it was greater than 50 µM; against PKA, 13.1 µM.

`Cc1[nH]nc(-c2nc3cc4cn[nH]c4cc3[nH]2)c1C(=O)NCC1CCNCC1` [Example 22]: the IC50 in assay [1] turned out to be 31 µM; on GST-Chk1 enzyme, 0.094 µM; at PDK1 it was 0.11 µM; on Akt1 it was 36.1 µM; on PKA, 6.4 µM.

On to `Cc1[nH]nc(-c2nc3cc(-c4cccc5c4CCO5)ccc3[nH]2)c1C(=O)NC1CCNCC1` [Example 23], for which the IC50 in assay [1] stood at 21.1 µM; on GST-Chk1 enzyme it was 0.015 µM; at PDK1 it was 0.125 µM; at Akt1, 25.6 µM; against PKA, 5.36 µM.

`Cc1[nH]nc(-c2nc3cc(C(=O)NC(C)C)ccc3[nH]2)c1C(=O)NC1CCNCC1` [Example 24]: the concentration for half-maximal inhibition (IC50) in assay [1] worked out at 6.42 µM; at GST-Chk1 enzyme, 0.036 µM; at PDK1 it was 0.046 µM; on Akt1, 34.5 µM; against PKA, 10.7 µM.

With `Cc1[nH]nc(-c2nc3cc4ccccc4cc3[nH]2)c1C(=O)NCC1CCCN1` (centres unmarked) [Example 26], the half-maximal inhibitory concentration (IC50) in assay [1] is 34.2 µM; on GST-Chk1 enzyme, 0.309 µM; at PDK1 it was 0.521 µM; on Akt1, greater than 50 µM; against PKA, 34.7 µM.

On to `Cc1[nH]nc(-c2nc3cc4ccccc4cc3[nH]2)c1C(=O)NCC1CCNC1` (centres unmarked) [Example 27], for which the 50% inhibitory concentration (IC50) in assay [1] is 6.24 µM; at GST-Chk1 enzyme, 0.004 µM; on PDK1 it was 0.143 µM; on Akt1, greater than 50 µM; against PKA it was 8.31 µM.

As to `Cc1[nH]nc(-c2nc3cc4ccccc4cc3[nH]2)c1C(=O)NCC1CCCNC1` (centres unmarked) [Example 28], the 50% inhibitory concentration (IC50) in assay [1] was 8.5 µM; on GST-Chk1 enzyme, 0.008 µM; on PDK1, 0.125 µM; on Akt1 it was greater than 50 µM; at PKA, 8.99 µM.

On to `Cc1cc2nc(-c3n[nH]c(C)c3C(=O)NC3CCN(C)CC3)[nH]c2cc1C` [Example 29], for which the IC50 is 8.24 µM in assay [1]; 0.016 µM at GST-Chk1 enzyme; 0.18 µM at PDK1; greater than 50 µM on Akt1; 5.98 µM against PKA.

As to `Cc1[nH]nc(-c2nc3ccccc3[nH]2)c1C(=O)NC1CCN(C)CC1` [Example 30], the half-inhibitory concentration (IC50) in assay [1] was 2.21 µM; on GST-Chk1 enzyme it was 0.0635 µM; at PDK1, 0.139 µM; on Akt1 it was 11.8 µM; against PKA it was 20.2 µM.

As for `COCCNC(=O)c1ccc2nc(-c3n[nH]c(C)c3C(=O)NC3CCNCC3)[nH]c2c1` [Example 31], the concentration for half-maximal inhibition (IC50) in assay [1] came to 11.4 µM; on GST-Chk1 enzyme it was 0.002 µM; at PDK1, 0.073 µM; on Akt1, 31.4 µM; on PKA it was 8.04 µM.

Take `Cc1[nH]nc(-c2nc3ccc(C(=O)NCC(C)c4ccccc4)cc3[nH]2)c1C(=O)NC1CCNCC1` (centres unmarked) [Example 32]: the IC50 in assay [1] amounted to 15.6 µM; on GST-Chk1 enzyme it was 0.003 µM; at PDK1, 0.036 µM; at Akt1 it was 18.1 µM; against PKA, 6.5 µM.

With `Cc1[nH]nc(-c2nc3ccc(NC(=O)CC(C)C)cc3[nH]2)c1C(=O)NC1CCN(C)CC1` [Example 33], the IC50 came out at 21.3 µM in assay [1]; 0.003 µM at GST-Chk1 enzyme; 0.095 µM on PDK1; 47.5 µM at Akt1; 13.1 µM against PKA.

As for `Cc1[nH]nc(-c2nc3cc(F)c(NC(=O)C4CC4)cc3[nH]2)c1C(=O)NC1CCN(C)CC1` [Example 34], the 50% inhibitory concentration (IC50) was 20.6 µM in assay [1]; 0.013 µM at GST-Chk1 enzyme; 0.216 µM at PDK1; 44.1 µM at Akt1; 28.4 µM against PKA.
